Laboratory results from patent US9115129B2, “Substituted pyrido[2,3-B]pyrazines as IP receptor agonists” (Novartis AG, priority 2012, dated 2015).

Target: T1, IP receptor (Homo sapiens, UniProt P43119)
T1 construct: expressed in transfected cells; host or cells: CHO cells stably expressing the IP receptor (CHO-IP)
Assay: cAMP accumulation in CHO cells stably expressing the IP receptor (CHO-IP), Perkin Elmer AlphaScreen assay
Assay type: cell-based
Conditions: agonist activity, 1 hour at room temperature
Experimental: Activity of compounds at the IP receptor (IP receptor) is assessed by measuring cAMP accumulation in CHO cells stably expressing the IP receptor (CHO-IP) using the Perkin Elmer AlphaScreen assay. This technology measures the endogenous production of cAMP, in a non-radioactive luminescence proximity homogenous assay. A biological reaction occurs between streptavidin coated donor beads, biotinylated cAMP and anti-cAMP acceptor beads, bringing the donor and acceptor beads close enough together so that upon excitation a fluorescence signal is produced. On production of endogenous cAMP, competition between the biotinylated cAMP and cellular-derived cAMP causes a reduction in the fluorescent signal. The reduction in signal is proportional to the amount of cAMP being produced, thus it is possible to quantify the amount of cAMP being produced on stimulation with agonist.
Test and reference compounds are prepared at 100× [final] in 100% DMSO, and diluted 1:3 using a Biomek Fx (Beckman Coulter). This is followed by an intermediate dilution to give 5× [final] in assay buffer (HBSS containing 5 mM HEPES, 0.1% (w/v) BSA). 5 μL of 5× [final] test compounds, reference compounds and buffer/DMSO control are then transferred to a 384-well white OptiPlate, containing 20 μL CHO-IP cell suspension (15,000 cells/well, prepared from frozen), and plate is incubated at room temperature for 1 hour. A cAMP standard curve is constructed for each experiment (concentration range of 10000 nM to 0.001 nM, in assay buffer) and 25 μL of each concentration added to the last two columns of the assay plate. The incubation is terminated by the addition of lysis buffer (dH2O; 0.3% (v v^−1) Tween-20) containing 20 units mL^−1 streptavidin coated donor beads and biotinylated cAMP (pre-incubated for 30 minutes) and 20 units mL^−1 anti-cAMP acceptor beads, which are added to the lysis buffer just before addition to the assay plate. The assay plate is then incubated at room temperature in the dark, for 60 minutes with gentle shaking, and read on the Envision plate reader (Perkin Elmer).
The raw data of the reference compounds, test compounds and controls are converted into cAMP concentrations, using the cAMP standard curve, in Graph Pad Prism (Graph Pad Software Inc). EC50 as well as maximal values of the agonist curves are determined using a 4-parameter logistic equation. The % maximum response values of all test compounds are determined using the top of the treprostinil concentration-response curve.

T1 sequence (P43119 whole entry): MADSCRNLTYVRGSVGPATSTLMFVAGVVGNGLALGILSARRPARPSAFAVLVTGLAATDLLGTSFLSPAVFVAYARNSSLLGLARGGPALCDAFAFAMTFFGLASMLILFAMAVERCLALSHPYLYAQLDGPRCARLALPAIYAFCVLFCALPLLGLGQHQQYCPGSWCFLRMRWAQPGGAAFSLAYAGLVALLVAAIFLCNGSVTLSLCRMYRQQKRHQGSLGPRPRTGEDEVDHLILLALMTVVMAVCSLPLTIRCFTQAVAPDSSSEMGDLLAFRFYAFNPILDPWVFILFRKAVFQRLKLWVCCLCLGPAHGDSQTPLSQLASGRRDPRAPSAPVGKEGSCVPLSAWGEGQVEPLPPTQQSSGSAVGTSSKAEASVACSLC

| Compound | EC50 |
| --- | --- |
| COc1ccc(-c2nc3c(nc2-c2ccc(C)cc2)N(CCCCCCC(=O)O)CCC3)cc1 [Example 2.10, 7-(2-(4-Methoxyphenyl)-3-p-tolyl-7,8-dihydropyrido[2,3-b]pyrazin-5(6H)-yl)heptanoic acid] | 400 pM |
| Cc1ccc(-c2nc3c(nc2-c2ccc(C)nc2)CCCN3CCCCCCC(=O)O)cc1 [Example 6, 7-(2-(6-Methylpyridin-3-yl)-3-p-tolyl-7,8-dihydropyrido[2,3-b]pyrazin-5(6H)-yl)heptanoic acid] | 200 pM |
| Cc1ccc(-c2nc3c(nc2-c2ccc(C)cc2)C(C)(O)CCN3CCCCCCC(=O)O)cc1 (stereo not shown) [Example 16, 7-(8-Hydroxy-8-methyl-2,3-di-p-tolyl-7,8-dihydropyrido[2,3-b]pyrazin-5(6H)-yl)heptanoic acid] | 400 pM |
| (R)-6-(2,3-di-p-tolyl-5,6,7,8-tetrahydropyrido[2,3-b]pyrazin-6-yl)hexanoic acid or (S)-6-(2,3-di-p-tolyl-5,6,7,8-tetrahydropyrido[2,3-b]pyrazin-6-yl)hexanoic acid [1(i)] | 900 pM |
| Cc1ccc(-c2nc3c(nc2-c2ccccc2C)N(CCCCCCC(=O)O)CCC3)cc1 [Example 2.5, 7-(3-o-Tolyl-2-p-tolyl-7,8-dihydropyrido[3,2-b]pyrazin-5(6H)-yl)heptanoic acid] | 3900 pM |
| Cc1ccc(-c2nc3c(nc2-c2ccc(C)cc2)N(CCCCCCC(=O)O)CC(C(C)(C)O)C3)cc1 (single isomer, unassigned) [9.2(i), (R)-7-(7-(2-hydroxypropan-2-yl)-2,3-di-p-tolyl-7,8-dihydropyrido[2,3-b]pyrazin-5(6H)-yl)heptanoic acid or (S)-7-(7-(2-hydroxypropan-2-yl)-2,3-di-p-tolyl-7,8-dihydropyrido[2,3-b]pyrazin-5(6H)-yl)heptanoic acid] | 12700 pM |
| Cc1ccc(-c2nc3c(nc2-c2ccc(C)cc2)N(CCCCCCC(=O)N(C)O)CCC3)cc1 [Example 12.8, 7-(2,3-Di-p-tolyl-7,8-dihydropyrido[2,3-b]pyrazin-5(6H)-yl)-N-hydroxy-N-methylheptanamide] | 8000 pM |
| COC1(C)CCN(CCCCCCC(=O)O)c2nc(-c3ccc(C)cc3)c(-c3ccc(C)cc3)nc21 (single isomer, unassigned) [Example 15b, (R)-7-(8-Methoxy-8-methyl-2,3-di-p-tolyl-7,8-dihydropyrido[2,3-b]pyrazin-5(6H)-yl)heptanoic acid or (S)-7-(8-Methoxy-8-methyl-2,3-di-p-tolyl-7,8-dihydropyrido[2,3-b]pyrazin-5(6H)-yl)heptanoic acid] | 3600 pM |
| Cc1ccc(-c2nc3c(nc2-c2ccc(C)cc2)N(CCCCCCC(=O)O)C(=O)C(C(C)(C)O)C3)cc1 (single isomer, unassigned) [1.1(i), (R)-7-(7-(2-hydroxypropan-2-yl)-6-oxo-2,3-di-p-tolyl-7,8-dihydropyrido[2,3-b]pyrazin-5(6H)-yl)heptanoic acid or (S)-7-(7-(2-hydroxypropan-2-yl)-6-oxo-2,3-di-p-tolyl-7,8-dihydropyrido[2,3-b]pyrazin-5(6H)-yl)heptanoic acid] | 300 pM |
| Cc1ccc(-c2nc3c(nc2-c2ccccc2C)CCCN3CCCCCCC(=O)O)cc1 [Example 2.6, 7-(2-o-Tolyl-3-p-tolyl-7,8-dihydropyrido[3,2-b]pyrazin-5(6H)-yl)heptanoic acid] | 600 pM |
| Cc1ccc(-c2nc3c(nc2-c2ccc(C)cc2)N(CCCCCCC(=O)NO)CCC3)cc1 [Example 12.9, 7-(2,3-Di-p-tolyl-7,8-dihydropyrido[2,3-b]pyrazin-5(6H)-yl)-N-hydroxyheptanamide] | 400 pM |
| Cc1ccc(-c2nc3c(nc2-c2ccc(C)cc2)N(CCCCCCC(=O)NS(=O)(=O)Cc2ccccc2)CCC3O)cc1 (single isomer, unassigned) [Example 13.3, (R)—N-(benzylsulfonyl)-7-(8-hydroxy-2,3-di-p-tolyl-7,8-dihydropyrido[3,2-b]pyrazin-5(6H)-yl)heptanamide or (S)—N-(benzylsulfonyl)-7-(8-hydroxy-2,3-di-p-tolyl-7,8-dihydropyrido[3,2-b]pyrazin-5(6H)-yl)heptanamide] | 66200 pM |
| Cc1ccc(-c2nc3c(nc2-c2ccc(C)cc2)N(CCCCCCC(=O)NS(=O)(=O)Cc2ccccc2)CCC3)cc1 [Example 12, N-(Benzylsulfonyl)-7-(2,3-di-p-tolyl-7,8-dihydropyrido[2,3-b]pyrazin-5(6H)-yl)heptanamide] | 5900 pM |
| Cc1ccc(-c2nc3c(nc2-c2ccc(C)cc2)N(CCCCCCC(=O)NS(C)(=O)=O)CCC3O)cc1 (single isomer, unassigned) [Example 13.1, (R or S)-7-(8-Hydroxy-2,3-di-p-tolyl-7,8-dihydropyrido[3,2-b]pyrazin-5(6H)-yl)-N-(methylsulfonyl)heptanamide] | 28600 pM |
| Cc1ccc(-c2nc3c(nc2-c2ccc(C)cc2)N(CCCCCCCCC(=O)O)CCC3)cc1 [Example 9.1, 9-(2,3-Di-p-tolyl-7,8-dihydropyrido[2,3-b]pyrazin-5(6H)-yl)nonanoic acid] | 600 pM |
| Cc1ccc(-c2nc3c(nc2-c2ccc(C)nc2)N(CCCCCCC(=O)O)CCC3)cc1 [Example 7, 7-(3-(6-Methylpyridin-3-yl)-2-p-tolyl-7,8-dihydropyrido[2,3-b]pyrazin-5(6H)-yl)heptanoic acid] | 200 pM |
| Cc1ccc(-c2nc3c(nc2-c2ccc(C)cc2)N(CCCCCCC(=O)O)CC(N2CCCCC2)C3)cc1 (stereo not shown) [Example 14] | 2700 pM |
| Cc1ccc(-c2nc3c(nc2-c2ccc(C)cc2)N(CCCCCCC(=O)NCc2ccccc2)CCC3)cc1 [Example 12.1, N-Benzyl-7-(2,3-di-p-tolyl-7,8-dihydropyrido[2,3-b]pyrazin-5(6H)-yl)heptanamide] | 40200 pM |
| Cc1ccc(-c2nc3c(nc2-c2ccccc2)CCC(C)N3CCCCCCC(=O)O)cc1 (stereo not shown) [Example 2.4, 7-(6-Methyl-2-phenyl-3-p-tolyl-7,8-dihydropyrido[2,3-b]pyrazin-5(6H)-yl)heptanoic acid] | 2400 pM |
| CCC1Cc2nc(-c3ccc(C)cc3)c(-c3ccc(C)cc3)nc2N(CCCCCCC(=O)O)C1 (stereo not shown) [Example 2.1, 7-(7-Ethyl-2,3-di-p-tolyl-7,8-dihydropyrido[2,3-b]pyrazin-5(6H)-yl)heptanoic acid] | 400 pM |
| Cc1ccc(-c2nc3c(nc2-c2ccc(C)cc2)N(CCCCCCC(=O)NS(=O)(=O)Cc2ccccc2)CCC3O)cc1 (single isomer, unassigned) [Example 13.2, (R)—N-(benzylsulfonyl)-7-(8-hydroxy-2,3-di-p-tolyl-7,8-dihydropyrido[3,2-b]pyrazin-5(6H)-yl)heptanamide or (S)—N-(benzylsulfonyl)-7-(8-hydroxy-2,3-di-p-tolyl-7,8-dihydropyrido[3,2-b]pyrazin-5(6H)-yl)heptanamide] | 510000 pM |
| CCC1CCc2nc(-c3ccc(C)cc3)c(-c3ccc(C)cc3)nc2N1CCCCCCC(=O)O (single isomer, unassigned) [2.3(ii), (R)-7-(6-Ethyl-2,3-di-p-tolyl-7,8-dihydropyrido[2,3-b]pyrazin-5(6H)-yl)heptanoic acid or (S)-7-(6-Ethyl-2,3-di-p-tolyl-7,8-dihydropyrido[2,3-b]pyrazin-5(6H)-yl)heptanoic acid] | 300 pM |
| COC1(C)CCN(CCCCCCC(=O)O)c2nc(-c3ccc(C)cc3)c(-c3ccc(C)cc3)nc21 (single isomer, unassigned) [Example 15a, (R)-7-(8-Methoxy-8-methyl-2,3-di-p-tolyl-7,8-dihydropyrido[2,3-b]pyrazin-5(6H)-yl)heptanoic acid or (S)-7-(8-Methoxy-8-methyl-2,3-di-p-tolyl-7,8-dihydropyrido[2,3-b]pyrazin-5(6H)-yl)heptanoic acid] | 1100 pM |
| Cc1ccc(-c2nc3c(nc2-c2ccc(C)cc2)N(CCCCCCC(=O)O)C(=O)C(C(C)(C)O)C3)cc1 (single isomer, unassigned) [1.1(ii), (R)-7-(7-(2-hydroxypropan-2-yl)-6-oxo-2,3-di-p-tolyl-7,8-dihydropyrido[2,3-b]pyrazin-5(6H)-yl)heptanoic acid or (S)-7-(7-(2-hydroxypropan-2-yl)-6-oxo-2,3-di-p-tolyl-7,8-dihydropyrido[2,3-b]pyrazin-5(6H)-yl)heptanoic acid] | 600 pM |
| COC1CCN(CCCCCCC(=O)O)c2nc(-c3ccc(C)cc3)c(-c3ccc(C)cc3)nc21 (racemic) [Example 3.1, rac-7-(8-Methoxy-2,3-di-p-tolyl-7,8-dihydropyrido[2,3-b]pyrazin-5(6H)-yl)heptanoic acid] | 800 pM |
